Laboratory results from PMC6839509, “Fluorescent probes towards selective cathepsin B detection and visualization in cancer cells and patient samples” (Chemical Science, 2019).
Where “and” joins values, the source holds several entries; their conditions need not be identical. Equal entries are not always repeated. Square brackets hold non-standard residues; d marks the D form. * marks the point of attachment. Phe(4-Cl) = N[C@@H](Cc1ccc(Cl)cc1)C(=O)O; ACC = NC(=O)Cc1cc(=O)oc2cc(N*)ccc12; hTyr = N[C@@H](CCc1ccc(O)cc1)C(=O)O; hPhe = N[C@@H](CCc1ccccc1)C(=O)O; Cha = N[C@@H](CC1CCCCC1)C(=O)O; AMC = Cc1cc(=O)oc2cc(N*)ccc12; hLeu = CC(C)CC[C@H](N)C(=O)O; hSer = N[C@@H](CCO)C(=O)O; Nle = CCCC[C@H](N)C(=O)O; Nva = CCC[C@H](N)C(=O)O; Cbz = O=C(OCc1ccccc1)*; OBn = c1ccc(CO*)cc1; Bn = c1ccc(C*)cc1

Experiments:
Assay in all cases: Substrate hydrolysis kinetics (kcat, KM, kcat/KM) of ACC-labeled substrates
Assay type in all cases: biochemical
[1] = biological target: T1, human recombinant cathepsin B (Homo sapiens, UniProt P07858); conditions: for kcat/KM Cat B: cathepsin B 0.3–0.5 nM, 100 mM sodium acetate, 100 mM NaCl, 10 mM DTT, 1 mM EDTA, Michaelis–Menten, average of at least triplicate; for kcat/KM Cat B / kcat Cat B / Km: pH 5.5, 37 °C, S.D. below 15%; for kcat Cat B / Km: four independent experiments; for Km: read-out: KM Cat B
T1 construct: made in house
Description: (§1) All kinetic experiments were performed using a CLARIOStar (BMG LABTECH) plate reader operating in fluorescence kinetic mode using 96-well plates (Corning®, Costar®). ACC-labeled fluorescent substrates were screened at 355 nm (excitation) and 460 nm (emission) wavelengths (gain 650). The cathepsin assay buffer was composed of 100 mM sodium acetate, 100 mM sodium chloride, 10 mM DTT, 1 mM EDTA, pH 5.5. All kinetic studies were performed at 37 °C.
(§2) The kinetic parameters for all ACC-labeled substrates were determined using Michaelis–Menten kinetic according to the protocol described by Poreba et al.[41] […] All experiments were performed at least in triplicate and the results are presented as average values (S.D. for all tested substrates was below 15%).

[2] = biological target: T2, human recombinant cathepsin K (Homo sapiens, UniProt P43235); conditions: pH 5.5, 37 °C, S.D. below 15%; for kcat/KM Cat K: cathepsin K 320 nM, Michaelis–Menten, average of at least triplicate; for kcat Cat K / Km: four independent experiments; for Km: read-out: KM Cat K
T2 construct: with a 100 nM final concentration of each active cathepsin for 30 min; made in house
T2 sequence (P43235 115-329): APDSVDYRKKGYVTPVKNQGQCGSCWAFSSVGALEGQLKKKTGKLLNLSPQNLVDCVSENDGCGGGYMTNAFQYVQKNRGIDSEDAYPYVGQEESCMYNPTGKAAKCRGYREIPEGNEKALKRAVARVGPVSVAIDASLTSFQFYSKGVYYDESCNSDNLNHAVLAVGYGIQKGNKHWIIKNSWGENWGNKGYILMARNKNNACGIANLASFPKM
Description: as §1, §2

[3] = biological target: T3, human recombinant cathepsin L (Homo sapiens, UniProt P07711); conditions: pH 5.5, 37 °C, S.D. below 15%; for kcat/KM Cat L: cathepsin L 250 nM, Michaelis–Menten, average of at least triplicate; for kcat Cat L / Km: four independent experiments; for Km: read-out: KM Cat L
T3 construct: with a 100 nM final concentration of each active cathepsin for 30 min; made in house
T3 sequence (P07711 114-333): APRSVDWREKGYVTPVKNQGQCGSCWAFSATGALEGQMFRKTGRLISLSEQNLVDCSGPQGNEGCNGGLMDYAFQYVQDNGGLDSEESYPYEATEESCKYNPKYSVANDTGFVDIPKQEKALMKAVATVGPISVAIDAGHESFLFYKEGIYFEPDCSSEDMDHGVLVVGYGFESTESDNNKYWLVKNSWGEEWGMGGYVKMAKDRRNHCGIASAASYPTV
Description: as §1, §2

[4] = biological target: T4, human recombinant cathepsin S (Homo sapiens, UniProt P25774); conditions: pH 5.5, 37 °C, S.D. below 15%; for kcat/KM Cat S: cathepsin S 150 nM, Michaelis–Menten, average of at least triplicate; for kcat Cat S / Km: four independent experiments; for Km: read-out: KM Cat S
T4 construct: with a 100 nM final concentration of each active cathepsin for 30 min; made in house
T4 sequence (P25774 115-331): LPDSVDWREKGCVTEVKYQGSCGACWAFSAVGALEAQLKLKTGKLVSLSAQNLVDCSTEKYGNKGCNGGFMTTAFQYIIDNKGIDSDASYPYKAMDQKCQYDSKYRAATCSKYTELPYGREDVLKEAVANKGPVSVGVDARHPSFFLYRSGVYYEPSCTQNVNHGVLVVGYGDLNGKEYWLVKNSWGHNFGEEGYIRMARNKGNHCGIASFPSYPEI
Description: as §1, §2

[5] = biological target: T5, human recombinant cathepsin V (Homo sapiens, UniProt O60911); conditions: pH 5.5, 37 °C, S.D. below 15%; for kcat/KM Cat V: cathepsin V 200 nM, Michaelis–Menten, average of at least triplicate; for kcat Cat V / Km: four independent experiments; for Km: read-out: KM Cat V
T5 construct: with a 100 nM final concentration of each active cathepsin for 30 min; made in house
T5 sequence (O60911 114-334): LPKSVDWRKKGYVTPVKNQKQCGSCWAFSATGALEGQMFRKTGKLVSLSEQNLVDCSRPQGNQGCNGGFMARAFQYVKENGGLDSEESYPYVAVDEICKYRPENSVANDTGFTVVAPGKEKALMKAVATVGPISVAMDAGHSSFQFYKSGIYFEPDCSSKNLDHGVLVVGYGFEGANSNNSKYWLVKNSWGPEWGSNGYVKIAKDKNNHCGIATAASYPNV
Description: as §1, §2

Substance	kcat/KM Cat B [1]	kcat/KM Cat K [2]	kcat/KM Cat L [3]	kcat/KM Cat S [4]	kcat/KM Cat V [5]	selectivity for cathepsin B in comparison with cathepsin S ([1]; from kcat/KM)	kcat Cat B [1] [s⁻¹]	Km [1] [µM]	kcat Cat K [2] [s⁻¹]	Km [2] [µM]	kcat Cat L [3] [s⁻¹]	Km [3] [µM]	kcat Cat S [4] [s⁻¹]	Km [4] [µM]	kcat Cat V [5] [s⁻¹]	Km [5] [µM]	selectivity for cathepsin B over cathepsin L ([1]; from kcat/KM) [fold]
Ac-[Phe(4-Cl)]L[hSer](Bn)R-{ACC} (SMILES CC(=O)N[C@@H](Cc1ccc(Cl)cc1)C(=O)N[C@@H](CC(C)C)C(=O)N[C@@H](CCOCc1ccccc1)C(=O)N[C@@H](CCCNC(=N)N)C(=O)Nc1ccc2c(CC(N)=O)cc(=O)oc2c1) [ACC-labeled tetrapeptide substrate]	3,780,000 M^-1s^-1	12 M⁻¹ s⁻¹	1,540 M^-1s^-1	50 M⁻¹ s⁻¹	570 M⁻¹ s⁻¹												
Ac-[hLeu][Nle][hSer](Bn)R-{ACC} (SMILES CCCC[C@H](NC(=O)[C@H](CCC(C)C)NC(C)=O)C(=O)N[C@@H](CCOCc1ccccc1)C(=O)N[C@@H](CCCNC(=N)N)C(=O)Nc1ccc2c(CC(N)=O)cc(=O)oc2c1) [ACC-labeled tetrapeptide substrate]		16 M⁻¹ s⁻¹ and 19 M⁻¹ s⁻¹		65 M⁻¹ s⁻¹ and 39 M⁻¹ s⁻¹													
Ac-[hPhe]LE(OBn)R-{ACC} (SMILES CC(=O)N[C@@H](CCc1ccccc1)C(=O)N[C@@H](CC(C)C)C(=O)N[C@@H](CCC(=O)OCc1ccccc1)C(=O)N[C@@H](CCCNC(=N)N)C(=O)Nc1ccc2c(CC(N)=O)cc(=O)oc2c1) [ACC-labeled tetrapeptide substrate]	2,100,000 M^-1s^-1	12 M⁻¹ s⁻¹	726 M⁻¹ s⁻¹	37 M⁻¹ s⁻¹	829 M⁻¹ s⁻¹												
Ac-[Cha]LE(OBn)R-{ACC} (SMILES CC(=O)N[C@@H](CC1CCCCC1)C(=O)N[C@@H](CC(C)C)C(=O)N[C@@H](CCC(=O)OCc1ccccc1)C(=O)N[C@@H](CCCNC(=N)N)C(=O)Nc1ccc2c(CC(N)=O)cc(=O)oc2c1)	3,100,000 M^-1s^-1	14 M⁻¹ s⁻¹	744 M⁻¹ s⁻¹	40 M⁻¹ s⁻¹	949 M⁻¹ s⁻¹	~60 000 fold	344	115	< 0.007	> 500	0.062	83.5	< 0.020	> 500	0.034	35.1	
Ac-[hLeu][Nle]E(OBn)R-{ACC} (SMILES CCCC[C@H](NC(=O)[C@H](CCC(C)C)NC(C)=O)C(=O)N[C@@H](CCC(=O)OCc1ccccc1)C(=O)N[C@@H](CCCNC(=N)N)C(=O)Nc1ccc2c(CC(N)=O)cc(=O)oc2c1) [ACC-labeled tetrapeptide substrate]	3,450,000 M^-1s^-1	17 M⁻¹ s⁻¹	1,090 M^-1s^-1	96 M⁻¹ s⁻¹	1,180 M^-1s^-1												
Ac-[Cha]L[hSer](Bn)R-{ACC} (SMILES CC(=O)N[C@@H](CC1CCCCC1)C(=O)N[C@@H](CC(C)C)C(=O)N[C@@H](CCOCc1ccccc1)C(=O)N[C@@H](CCCNC(=N)N)C(=O)Nc1ccc2c(CC(N)=O)cc(=O)oc2c1) [ACC-labeled tetrapeptide substrate]	4,300,000 M^-1s^-1	14 M⁻¹ s⁻¹	1,040 M^-1s^-1	44 M⁻¹ s⁻¹	518 M⁻¹ s⁻¹		390	90.9	< 0.007	> 500	0.109	105	< 0.022	> 500	0.055	109	
Ac-hLeu-Nle-Glu(Chx)-Arg-ACC [ACC-labeled tetrapeptide substrate]	2,600,000 M^-1s^-1	11 M⁻¹ s⁻¹	769 M⁻¹ s⁻¹	25 M⁻¹ s⁻¹	1,310 M^-1s^-1												
Ac-[Nva][Cha]E(OBn)R-{ACC} (SMILES CCC[C@H](NC(C)=O)C(=O)N[C@@H](CC1CCCCC1)C(=O)N[C@@H](CCC(=O)OCc1ccccc1)C(=O)N[C@@H](CCCNC(=N)N)C(=O)Nc1ccc2c(CC(N)=O)cc(=O)oc2c1) [ACC-labeled tetrapeptide substrate]	4,090,000 M^-1s^-1	30 M⁻¹ s⁻¹	1,140 M^-1s^-1	37 M⁻¹ s⁻¹	1,420 M^-1s^-1												
Ac-[hTyr]LE(OBn)R-{ACC} (SMILES CC(=O)N[C@@H](CCc1ccc(O)cc1)C(=O)N[C@@H](CC(C)C)C(=O)N[C@@H](CCC(=O)OCc1ccccc1)C(=O)N[C@@H](CCCNC(=N)N)C(=O)Nc1ccc2c(CC(N)=O)cc(=O)oc2c1) [ACC-labeled tetrapeptide substrate]	2,760,000 M^-1s^-1	14 M⁻¹ s⁻¹	1,170 M^-1s^-1	41 M⁻¹ s⁻¹	692 M⁻¹ s⁻¹												
Cbz-Arg-Arg-{AMC} [reference compound]																	17
